Measured values reported in patent US9657002B2, “Oxindole derivatives carrying an oxetane substituent and use thereof for treating vassopressin-related diseases” (AbbVie Deutschland GmbH & Co. KG, priority 2013, dated 2017).

How the values were obtained:
[1] = molecular target: T1, human vasopressin V1b receptor (Homo sapiens, UniProt P47901); assay: biochemical
T1 sequence (P47901 1-424): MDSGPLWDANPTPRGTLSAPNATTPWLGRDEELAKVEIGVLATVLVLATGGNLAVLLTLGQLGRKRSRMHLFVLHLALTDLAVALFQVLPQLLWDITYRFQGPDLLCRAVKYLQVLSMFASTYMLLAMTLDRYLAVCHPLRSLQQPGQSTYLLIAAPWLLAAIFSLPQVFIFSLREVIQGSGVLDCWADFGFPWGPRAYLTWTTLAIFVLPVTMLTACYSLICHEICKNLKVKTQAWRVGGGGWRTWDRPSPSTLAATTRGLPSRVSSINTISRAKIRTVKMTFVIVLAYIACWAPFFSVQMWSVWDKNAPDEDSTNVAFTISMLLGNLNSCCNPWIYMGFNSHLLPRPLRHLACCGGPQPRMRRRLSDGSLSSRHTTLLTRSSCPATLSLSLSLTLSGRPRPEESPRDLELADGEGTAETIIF

[2] = molecular target: human vasopressin V1a receptor (Homo sapiens, UniProt P37288); assay: Vasopressin V1a receptor binding assay; conditions: selectivity quotient, human V1a vs human V1b
human vasopressin V1a receptor, sequence (P37288 whole entry): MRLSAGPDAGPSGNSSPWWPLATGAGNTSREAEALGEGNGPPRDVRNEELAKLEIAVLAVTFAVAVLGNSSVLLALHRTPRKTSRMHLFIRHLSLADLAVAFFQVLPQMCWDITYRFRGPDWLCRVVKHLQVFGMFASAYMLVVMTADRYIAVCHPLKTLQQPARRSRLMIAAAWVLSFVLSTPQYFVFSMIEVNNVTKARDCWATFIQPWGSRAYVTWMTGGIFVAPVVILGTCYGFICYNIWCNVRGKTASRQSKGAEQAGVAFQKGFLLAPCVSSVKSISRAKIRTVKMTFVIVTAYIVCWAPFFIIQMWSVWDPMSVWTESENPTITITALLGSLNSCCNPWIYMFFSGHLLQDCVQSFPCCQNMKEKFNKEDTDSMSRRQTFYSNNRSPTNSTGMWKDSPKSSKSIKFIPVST

| SMILES | Ki [1] | Ki(h-V1a)/Ki(h-V1b) [2] |
| --- | --- | --- |
| COc1ccc(S(=O)(=O)N2C(=O)[C@@](NC(=O)N3CCC(C4CCN(C5COC5)CC4)CC3)(c3cccnc3OC)c3cc(C#N)ccc32)c(OC)c1 [Example 27, N-[(3S)-5-cyano-1-(2,4-dimethoxyphenyl)sulfonyl-3-(2-methoxy-3-pyridyl)-2-oxo-indolin-3-yl]-4-[1-(oxetan-3-yl)-4-piperidyl]piperidine-1-carboxamide] | < 1 nM | +++ (>75) |
| COc1ncccc1[C@]1(NC(=O)N2CCC(C3CCN(C4COC4)CC3)CC2)C(=O)N(S(=O)(=O)c2ccccc2)c2ccc(C#N)cc21 [Example 50, (S)—N-(5-cyano-3-(2-methoxypyridin-3-yl)-2-oxo-1-(phenylsulfonyl)indolin-3-yl)-1′-(oxetan-3-yl)-[4,4′-bipiperidine]-1-carboxamide] | 10 to 100 nM | ++ (25-75) |
| CCOc1ncccc1[C@]1(NC(=O)N2CCN(C3CCN(C4COC4)CC3)CC2)C(=O)N(S(=O)(=O)c2ccc(OC)cc2OC)c2cc(F)c(F)cc21 [Example 9, (S)—N-(1-((2,4-dimethoxyphenyl)sulfonyl)-3-(2-ethoxypyridin-3-yl)-5,6-difluoro-2-oxoindolin-3-yl)-4-(1-(oxetan-3-yl)piperidin-4-yl)piperazine-1-carboxamide] | – | +++ (>75) |
| COc1cc(F)ccc1S(=O)(=O)N1C(=O)[C@@](NC(=O)N2CCN(C3CCN(C4COC4)CC3)CC2)(c2cccnc2OC)c2cc(C#N)ccc21 [Example 30, N-[(3S)-5-cyano-1-(4-fluoro-2-methoxy-phenyl)sulfonyl-3-(2-methoxy-3-pyridyl)-2-oxo-indolin-3-yl]-4-[1-(oxetan-3-yl)-4-piperidyl]piperazine-1-carboxamide] | 1 to 10 nM | +++ (>75) |
| CCOc1ncccc1[C@]1(NC(=O)N2CCN(C3CCN(C4COC4)CC3)CC2)C(=O)N(S(=O)(=O)c2ccc(OC)cc2OC)c2ccc(C#N)cc21 [Example 1, (S)—N-(5-cyano-1-((2,4-dimethoxyphenyl)sulfonyl)-3-(2-ethoxypyridin-3-yl)-2-oxoindolin-3-yl)-4-(1-(oxetan-3-yl)piperidin-4-yl)piperazine-1-carboxamide] | – | +++ (>75) |
| COc1ccc(S(=O)(=O)N2C(=O)[C@@](NC(=O)N3CCN(C4CCN(C5COC5)CC4)CC3)(c3cccnc3OC(C)C)c3cc(C#N)ccc32)c(OC)c1 [Example 44, N-[(3S)-5-cyano-1-(2,4-dimethoxyphenyl)sulfonyl-3-(2-isopropoxy-3-pyridyl)-2-oxo-indolin-3-yl]-4-[1-(oxetan-3-yl)-4-piperidyl]piperazine-1-carboxamide] | 1 to 10 nM | +++ (>75) |
| CCOc1ncccc1[C@]1(NC(=O)N2CCC(N3CCN(C4COC4)CC3)CC2)C(=O)N(S(=O)(=O)c2ccc(OC)cc2)c2ccc(C#N)cc21 [Example 13, (S)—N-(5-cyano-3-(2-ethoxypyridin-3-yl)-1-((4-methoxyphenyl)sulfonyl)-2-oxoindolin-3-yl)-4-(4-(oxetan-3-yl)piperazin-1-yl)piperidine-1-carboxamide] | – | +++ (>75) |
| COc1ccc(S(=O)(=O)N2C(=O)[C@@](NC(=O)N3CCC(C4CCN(C5COC5)CC4)CC3)(c3cccnc3OC)c3cc(C#N)ccc32)nc1 [Example 39, N-[(3S)-5-cyano-3-(2-methoxy-3-pyridyl)-1-[(5-methoxy-2-pyridyl)sulfonyl]-2-oxo-indolin-3-yl]-4-[1-(oxetan-3-yl)-4-piperidyl]piperidine-1-carboxamide] | < 1 nM | – |
| CCOc1ncccc1[C@]1(NC(=O)N2CCN(C3CCN(C4(C)COC4)CC3)CC2)C(=O)N(S(=O)(=O)c2ccc(OC)cc2OC)c2ccc(C#N)cc21 [Example 51, (S)—N-(5-cyano-1-((2,4-dimethoxyphenyl)sulfonyl)-3-(2-ethoxypyridin-3-yl)-2-oxoindolin-3-yl)-4-(1-(3-methyloxetan-3-yl)piperidin-4-yl)piperazine-1-carboxamide] | 1 to 10 nM | +++ (>75) |
| CCOc1ncccc1[C@]1(NC(=O)N2CCN(C3CCN(C4COC4)CC3)CC2)C(=O)N(S(=O)(=O)c2ccc(OC)cn2)c2ccc(C#N)cc21 [Example 25, N-[(3S)-5-cyano-3-(2-ethoxy-3-pyridyl)-1-[(5-methoxy-2-pyridyl)sulfonyl]-2-oxo-indolin-3-yl]-4-[1-(oxetan-3-yl)-4-piperidyl]piperazine-1-carboxamide] | 1 to 10 nM | +++ (>75) |
| CCOc1ccc(OC)cc1[C@]1(NC(=O)N2CCN(C3CCN(C4COC4)CC3)CC2)C(=O)N(S(=O)(=O)c2ccc(OC)cc2OC)c2ccc(C#N)cc21 [Example 33, N-[(3S)-5-cyano-1-(2,4-dimethoxyphenyl)sulfonyl-3-(2-ethoxy-5-methoxy-phenyl)-2-oxo-indolin-3-yl]-4-[1-(oxetan-3-yl)-4-piperidyl]piperazine-1-carboxamide] | 1 to 10 nM | +++ (>75) |
| COc1cc(F)ccc1S(=O)(=O)N1C(=O)[C@@](NC(=O)N2CCC(C3CCN(C4COC4)CC3)CC2)(c2cccnc2OC)c2cc(C#N)ccc21 [Example 37, N-[(3S)-5-cyano-1-(4-fluoro-2-methoxy-phenyl)sulfonyl-3-(2-methoxy-3-pyridyl)-2-oxo-indolin-3-yl]-4-[1-(oxetan-3-yl)-4-piperidyl]piperidine-1-carboxamide] | < 1 nM | +++ (>75) |
| COc1ccc(S(=O)(=O)N2C(=O)C(NC(=O)N3CCN(C4CCN(C5COC5)CC4)CC3)(c3cccnc3OC)c3cc(C#N)ccc32)c(OC)c1 (centres unmarked) [Example 15, N-(5-cyano-1-((2,4-dimethoxyphenyl)sulfonyl)-3-(2-methoxypyridin-3-yl)-2-oxoindolin-3-yl)-4-(1-(oxetan-3-yl)piperidin-4-yl)piperazine-1-carboxamide] | – | +++ (>75) |
| CCOc1ncccc1[C@]1(NC(=O)N2CCN(C3CCN(C4COC4)CC3)CC2)C(=O)N(S(=O)(=O)c2ccc(OC)cc2)c2ccc(C#N)cc21 [Example 24, N-[(3S)-5-cyano-3-(2-ethoxy-3-pyridyl)-1-(4-methoxyphenyl)sulfonyl-2-oxo-indolin-3-yl]-4-[1-(oxetan-3-yl)-4-piperidyl]piperazine-1-carboxamide] | 10 to 100 nM | +++ (>75) |
| CCOc1ncccc1[C@]1(NC(=O)N2CCN(C3CCN(C4COC4)CC3)CC2)C(=O)N(S(=O)(=O)c2cc(F)c(OC)cc2OC)c2ccc(C#N)cc21 [Example 8, (S)—N-(5-cyano-3-(2-ethoxypyridin-3-yl)-1-((5-fluoro-2,4-dimethoxyphenyl)sulfonyl)-2-oxoindolin-3-yl)-4-(1-(oxetan-3-yl)piperidin-4-yl)piperazine-1-carboxamide] | – | +++ (>75) |
| CCOc1ncccc1[C@]1(NC(=O)N2CCC(N3CCN(C4COC4)CC3)CC2)C(=O)N(S(=O)(=O)c2ccc(C#N)cc2)c2ccc(C#N)cc21 [Example 12, (S)—N-(5-cyano-1-((4-cyanophenyl)sulfonyl)-3-(2-ethoxypyridin-3-yl)-2-oxoindolin-3-yl)-4-(4-(oxetan-3-yl)piperazin-1-yl)piperidine-1-carboxamide] | – | ++ (25-75) |
| CCOc1ncccc1[C@]1(NC(=O)N2CCN(C3CCN(C4COC4)CC3)CC2)C(=O)N(S(=O)(=O)c2ccc(OC)cc2F)c2ccc(C#N)cc21 [Example 6, (S)—N-(5-cyano-3-(2-ethoxypyridin-3-yl)-1-((2-fluoro-4-methoxyphenyl)sulfonyl)-2-oxoindolin-3-yl)-4-(1-(oxetan-3-yl)piperidin-4-yl)piperazine-1-carboxamide] | – | +++ (>75) |
| CCOc1ncccc1[C@]1(NC(=O)N2CCC(N3C[C@@H]4C[C@H]3CN4C3COC3)CC2)C(=O)N(S(=O)(=O)c2ccc(OC)cc2OC)c2ccc(C#N)cc21 [Example 17, N—((S)-5-cyano-1-((2,4-dimethoxyphenyl)sulfonyl)-3-(2-ethoxypyridin-3-yl)-2-oxoindolin-3-yl)-4-((1S,4S)-5-(oxetan-3-yl)-2,5-diazabicyclo[2.2.1]heptan-2-yl)piperidine-1-carboxamide] | – | ++ (25-75) |
| CCOc1ncccc1[C@]1(NC(=O)N2CCN(C3CCN(C4COC4)CC3)CC2)C(=O)N(S(=O)(=O)c2ccc(OC)c(C)c2C)c2ccc(C#N)cc21 [Example 18, (S)—N-(5-cyano-3-(2-ethoxypyridin-3-yl)-1-((4-methoxy-2,3-dimethylphenyl)sulfonyl)-2-oxoindolin-3-yl)-4-(1-(oxetan-3-yl)piperidin-4-yl)piperazine-1-carboxamide] | – | + (10-<25) |
| CCOc1ncccc1[C@]1(NC(=O)N2CCN(C3CCN(C4COC4)CC3)CC2)C(=O)N(S(=O)(=O)c2ccc(OC)cc2OC)c2ccc(Cl)cc21 [Example 10, (S)—N-(5-chloro-1-((2,4-dimethoxyphenyl)sulfonyl)-3-(2-ethoxypyridin-3-yl)-2-oxoindolin-3-yl)-4-(1-(oxetan-3-yl)piperidin-4-yl)piperazine-1-carboxamide] | – | +++ (>75) |
